Data taken from patent US11542273B2, “Amide compound having bet proteolysis-inducing action and medicinal application thereof” (MITSUBISHI TANABE PHARMA CORPORATION, priority 2018, dated 2023).

Assays:
[1] = biological target: BRD4 protein (Homo sapiens (Human), UniProt O60885); experiment: BRD4 protein degradation inducing action in cancer cells (immunofluorescence, Operetta); assay type: cell-based; settings: LNCaP cells, 6 hr treatment, fluorescence intensity
Summary of the method: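 DC50 = compound concentration reducing BRD4 immunofluorescence to 50% of untreated cells, interpolated between the two flanking concentrations. Treatment: LNCaP cells, 6 hr, 10% FBS/RPMI1640, 37° C. Cells were then fixed, permeabilized, stained with anti-BRD4 and Alexa Fluor 488 or 546 secondaries, and imaged.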

[2] = tested on: human prostate cancer LNCaP cells; experiment: Cytotoxic action on cancer cells (WST-8, 96 hr); assay type: cell-based; settings: Homo sapiens, LNCaP, 96 h, read-out: LNCaP cytotoxic activity: IC50
Summary of the method: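 10% FBS/RPMI1640; overnight plating, 37° C/5% CO2; compound from DMSO diluted in medium; WST-8 viable count vs no-compound control; IC50 by two-point linear interpolation around 50% survival.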

Row | Compound | DC50 [1] | IC50 [2]
1 | COC(=O)C[C@@H]1N=C(c2ccc(-c3ccc(C(=O)N[C@H](C(=O)N4C[C@H](O)C[C@H]4C(=O)NCc4ccc(-c5scnc5C)cc4)C(C)(C)C)c(Cl)c3)cc2)c2c(sc(C)c2C)-n2c(C)nnc21 [Example 190, methyl {(6S)-4-[3′-chloro-4′-({(2S)-1-[(2S,4R)-4-hydroxy-2-({[4-(4-methyl-1,3-thiazol-5-yl)phenyl]methyl}carbamoyl)pyrrolidin-1-yl]-3,3-dimethyl-1-oxobutan-2-yl}carbamoyl)[1,1′-biphenyl]-4-yl]-2,3,9-trimethyl-6H-thieno[3,2-f][1,2,4]triazolo[4,3-a][1,4]diazepin-6-yl}acetate] | 0.17 nM | 0.13 nM
2 | Cc1ncsc1-c1ccc([C@H](C)NC(=O)[C@@H]2C[C@@H](O)CN2C(=O)[C@@H](NC(=O)C#Cc2ccc(C3=N[C@@H](C)c4nnc(C)n4-c4sc(C)c(C)c43)cc2)C(C)(C)C)cc1 [Example 198, (2S,4R)-1-{(2S)-3,3-dimethyl-2-[(3-{4-[(6S)-2,3,6,9-tetramethyl-6H-thieno[3,2-f][1,2,4]triazolo[4,3-a][1,4]diazepin-4-yl]phenyl}prop-2-ynoyl)amino]butanoyl}-4-hydroxy-N-{(1S)-1-[4-(4-methyl-1,3-thiazol-5-yl)phenyl]ethyl}pyrrolidine-2-carboxamide] | 0.058 nM | 0.061 nM
3 | Cc1ncsc1-c1ccc([C@H](C)NC(=O)[C@@H]2C[C@@H](O)CN2C(=O)[C@@H](NC(=O)C2(OCCCc3ccc(C4=N[C@@H](C)c5nnc(C)n5-c5sc(C)c(C)c54)cc3)CC2)C(C)(C)C)cc1 [Example 199, (2S,4R)-1-[(2S)-3,3-dimethyl-2-{[1-(3-{4-[(6S)-2,3,6,9-tetramethyl-6H-thieno[3,2-f][1,2,4]triazolo[4,3-a] [1,4]diazepin-4-yl]phenyl}propoxy)cyclopropane-1-carbonyl]amino}butanoyl]-4-hydroxy-N-{(1S)-1-[4-(4-methyl-1,3-thiazol-5-yl)phenyl]ethyl}pyrrolidine-2-carboxamide] | 0.55 nM | 0.64 nM

Now from value to molecule, other results behind:

Row | DC50 [1] | Compound | IC50 [2]
4 | 0.77 nM | Cc1ncsc1-c1ccc([C@H](C)NC(=O)[C@@H]2C[C@@H](O)CN2C(=O)[C@@H](NC(=O)CCCCc2ccc(C3=N[C@@H](C)c4nnc(C)n4-c4sc(C)c(C)c43)cc2)C(C)(C)C)cc1 [Example 192, (2S,4R)-1-{(2S)-3,3-dimethyl-2-[(5-{4-[(6S)-2,3,6,9-tetramethyl-6H-thieno[3,2-f][1,2,4]triazolo[4,3-a] [1,4]diazepin-4-yl]phenyl}pentanoyl)amino]butanoyl}-4-hydroxy-N-{(1S)-1-[4-(4-methyl-1,3-thiazol-5-yl)phenyl]ethyl}pyrrolidine-2-carboxamide] | 0.46 nM
5 | 0.62 nM | Cc1ncsc1-c1ccc([C@H](C)NC(=O)[C@@H]2C[C@@H](O)CN2C(=O)[C@@H](NC(=O)CCCCCc2ccc(C3=N[C@@H](C)c4nnc(C)n4-c4sc(C)c(C)c43)cc2)C(C)(C)C)cc1 [Example 193, (2S,4R)-1-{(2S)-3,3-dimethyl-2-[(6-{4-[(6S)-2,3,6,9-tetramethyl-6H-thieno[3,2-f][1,2,4]triazolo[4,3-a] [1,4]diazepin-4-yl]phenyl}hexanoyl)amino]butanoyl}-4-hydroxy-N-{(1S)-1-[4-(4-methyl-1,3-thiazol-5-yl)phenyl]ethyl}pyrrolidine-2-carboxamide] | 0.3 nM
6 | 0.23 nM | Cc1ncsc1-c1ccc([C@H](C)NC(=O)[C@@H]2C[C@@H](O)CN2C(=O)[C@@H](NC(=O)CCCCCCc2ccc(C3=N[C@@H](C)c4nnc(C)n4-c4sc(C)c(C)c43)cc2)C(C)(C)C)cc1 [Example 194, (2S,4R)-1-{(2S)-3,3-dimethyl-2-[(7-{4-[(6S)-2,3,6,9-tetramethyl-6H-thieno[3,2-f][1,2,4]triazolo[4,3-a] [1,4]diazepin-4-yl]phenyl}heptanoyl)amino]butanoyl}-4-hydroxy-N-{(1S)-1-[4-(4-methyl-1,3-thiazol-5-yl)phenyl]ethyl}pyrrolidine-2-carboxamide] | 0.17 nM
